Where a SMILES comes first, the peptide text is derived from it. The star is where a group is joined. X1 = Oc1cccc(N*)c1
What was measured:
[1] = biological target: Human immunodeficiency virus type 1 protease (Human immunodeficiency virus 1, UniProt Q72874, Q7K); assay: Inhibition of HIV1 subtype C protease Q7K mutant expressed in Escherichia coli BL21 (DE3) pLysS using Lys-Ala-Arg-Val-Nle-p-nitro-Phe-Glu-Ala-Nle-NH2 as substrate by spectrophotometry
[2] = tested on: MT4; assay: Cytotoxicity against human MT4 cells after 5 days by XTT assay; type: cell-based; details: MT4, 120 h
[3] = Solubility of the compound in aqueous buffer at pH 5; type: physicochemical
[4] = Ratio of cytotoxicity for Lopinavir to compound for human MT4 cells after 5 days by XTT assay; type: cell-based

| Structure (SMILES) | IC50 [1] | IC50 [2] | solubility [3] | selectivity ratio at 120 h [4] |
| --- | --- | --- | --- | --- |
| CC[C@H](C)[C@H](NC(=O)[C@@H](N)CO)C(=O)N[C@@H](C)C(=O)N[C@@H](CCC(=O)O)C(=O)Nc1cccc(O)c1 (H-SIAE-X1) | 10 µM |  |  |  |
| CC[C@H](C)[C@H](NC(=O)[C@@H](N)CO)C(=O)N[C@@H](C)C(=O)N[C@@H](CCC(=O)O)C(=O)NC12NC(=O)C3(O)C4C5CC(C6C5C3C61)C42 (mixture of isomers) | 0.078 µM | 218 µM | soluble | 6000 |
| CC[C@H](C)[C@H](NC(=O)[C@@H](N)CO)C(=O)N[C@@H](C)C(=O)N[C@@H](CCC(=O)O)C(=O)NC12NC(=O)C3(OC(C)=O)C4C5CC(C6C5C3C61)C42 (mixture of isomers) | > 10 µM |  | soluble | 6000 |
| CC[C@H](C)[C@H](N)C(=O)N[C@@H](C)C(=O)N[C@@H](CCC(=O)O)C(=O)NC12NC(=O)C3(O)C4C5CC(C6C5C3C61)C42 (mixture of isomers) | 0.5 µM | 216 µM | soluble | 6000 |
| CC[C@H](C)[C@H](NC(=O)[C@@H](N)CO)C(=O)N[C@H](C(=O)N[C@@H](CCC(=O)O)C(=O)NC12NC(=O)C3(O)C4C5CC(C6C5C3C61)C42)C(C)C (mixture of isomers) | 2 µM |  | soluble | 6000 |
| CC[C@H](C)[C@H](NC(=O)[C@@H](N)CO)C(=O)N[C@@H](C)C(=O)N[C@@H](CCC(N)=O)C(=O)NC12NC(=O)C3(O)C4C5CC(C6C5C3C61)C42 (mixture of isomers) | 5 µM |  | soluble | 6000 |
| CC[C@H](C)[C@H](NC(=O)[C@@H](N)CO)C(=O)N[C@@H](C)C(=O)NC12NC(=O)C3(O)C4C5CC(C6C5C3C61)C42 (mixture of isomers; form 1) | 0.5 µM | > 300 µM | soluble | 6000 |
| CC[C@H](C)[C@H](NC(=O)[C@@H](N)CO)C(=O)N[C@@H](C)C(=O)NC12NC(=O)C3(O)C4C5CC(C6C5C3C61)C42 (mixture of isomers; form 2) | 10 µM |  |  |  |
| COC(=O)N[C@H](C(=O)N[C@@H](Cc1ccccc1)[C@@H](O)CN(Cc1ccc(-c2ccccn2)cc1)NC(=O)[C@@H](NC(=O)OC)C(C)(C)C)C(C)(C)C [ATAZANAVIR] | 0.004 µM |  |  |  |
| Cc1cccc(C)c1OCC(=O)N[C@@H](Cc1ccccc1)[C@@H](O)C[C@H](Cc1ccccc1)NC(=O)[C@H](C(C)C)N1CCCNC1=O [LOPINAVIR] |  | 0.035 µM |  |  |

From ChEMBL document CHEMBL1828574, “Synthesis and structural studies of pentacycloundecane-based HIV-1 PR inhibitors: a hybrid 2D NMR and docking/QM/MM/MD approach” (Eur J Med Chem, 2011)
